One data set has as its system P. falciparum. The data set is described as follows: Anti-Plasmodium activity: viability of P. falciparum cultures (pLDH enzyme assay). The data set is classed as cell-based. The settings on record: strain line ItG, 72 hr incubation, pLDH assay, mean of four determinations ± standard error, read-out: IC50 (μM) P. falciparum. The procedure: P. falciparum cultures were grown in O+ blood obtained by venipuncture of volunteers. Cultures of the laboratory line ItG were maintained by the method of Trager and Jensen (Trager, W.; Jensen, J. Science 1976, 193, 673) using RPM, 1640 supplemented with 10% human serum (a kind gift obtained under ethical consent from the Chemo Day Care department of the Princess Margaret Hospital, Toronto, Canada) and 50 μM hypoxanthine (RPMI-A). The effects of the test compounds on the viability of P. falciparum cultures were determined using a Lactate Dehydrogenase (LDH) enzyme assay specific to the enzyme found in Plasmodium falciparum (pLDH) (Prudhomme, J. G.; Sherman, I. W. J Immunol Methods 1999, 229(1-2), 169; Makler, M. T.; Ries, J. M.; Williams, J. A.; Bancroft, J. E.; Piper, R. C.; Gibbins, B. L.; Hinrichs, D. J. Am J Trop Med Hyg 1993, 48(6), 739). Briefly, compounds to be tested were dissolved in DMSO afford a solution having a concentration of 10 mg/mL. Two-fold serial dilutions were then produced in 50 μL of RPMI-A in a 96 well plate and then 50 μL of parasite culture (2% hematocrit, 2% parasitemia) were added to each well and the plates were then incubated at 37° C. in 95% N2, 3% CO2, and 2% O2 for 72 hr. The contents of the wells were then re-suspended using a multi-channel pipettor and a 15 μL sample was removed from each well and was added to 100 μL of pLDH enzyme assay mixture (Prudhomme, J. G.; Sherman, I. W. J Immunol Methods 1999, 229(1-2), 169). After 1 hr the absorbance of the wells at 650 nm was determined using a ThermoMax microplate reader (Molecular Devices, Sunnyvale, Calif.). The IC50 values of individual compounds were determined using a non-linear regression analysis of the data^19 using the computer program SigmaPlot (Jandel Scientific) and are reported in Table 1. The IC50 values represent the mean±standard error calculated from four independent determinations. To verify if the poor viability of the cultures was related to inhibited merozoite invasion, samples were taken from treated wells and the presence of extracellular merozoites was confirmed by microscopy.

The next data set concerns CHO cells. The data set is described as follows: Viability of CHO cells (MTT). Type of data set: cell-based. The conditions noted are these: Cricetulus griseus; CHO cells; 48 hrs; MTT; mean of four determinations ± standard error; read-out: IC50 (μM) CHO cells. As for the experimental part:
CHO cells (ATCC, Manassas, Va.) were grown in RPMI-1640 supplemented with 10% fetal calf serum (Sigma, St. Louis, Mo.), 25 mM HEPES and gentimicin (RPMI-10). Cells were seeded in 96 well plates and grown to 50% confluency in 100 μL of RPMI-10 per well prior to the addition of either DMSO alone, or a 10 mg/mL solution of a test compound of the disclosure in DMSO. Compound gradients were prepared by adding 90 μL of RPMI-10 mixed with 10 μL of compound solution to the first well in the series, mixing, transferring 100 μL to the next well, and repeating until the next-to-last well was reached. After 48 hrs, the viability of the cells was determined by discarding the media in the wells and adding 100 μL of 10 mg/mL of 3-[4,5-dimethylthiazol-2-yl]-2,5-diphenyltetrazolium bromide (MTT, Sigma, St. Louis, Mo.) in RPMI-10, incubating the plates for a further hour, and then removing the media and adding 100 μL of DMSO and reading the absorbance at 650 nm (Campling, B. G.; Pym, J.; Galbraith, P. R.; Cole, S. P. Leuk Res 1988, 12(10), 823). The IC50 values of individual compounds were determined using a non-linear regression analysis of the dose-response curve using the computer program SigmaPlot (Jandel Scientific) and are reported in Table 1.

In a further data set the test system is P. berghei parasites. The data set is described as follows: In vivo evaluation: parasitemia in mice infected with P. berghei. Also noted: species or system P. berghei in female Balb/C mice. As for the experimental part: (§1) Groups of 5 female Balb/C mice were infected with 10^6 P. berghei parasites i.p. and the parasitemia was estimated daily by examining a Giemsa-stained blood film. Once parasites were observed mice were infused once daily with saline alone (control groups) or with 18 ug/day of QT72, 18 ug/day of QT69, 0.24 ug/day of QT98, 60 ug/day of QT109, 9 ug/day of QT119, 7.5 ug/day of QT124 or 450 ug/day of chloroquine (CQ) for three days, as indicated by the arrows in FIG. 1. Average parasitemias are shown in FIG. 1 with standard error of the mean for each experimental group indicated by bars. The separate graphs in FIG. 1 indicate the results of two separate experiments.

Details of data set [1]: species or system mice. The settings on record: mouse, in vivo. As for the experimental part: as §1
The test system of data set [2] is P. falciparum ItG cultures. Kind of data set: Effect on synchronized ItG P. falciparum cultures (Giemsa stained blood films). The settings on record: 20 uM; cultures synchronized at mature stage; 24 hrs incubation. Type of data set: cell-based. The procedure: The culture was allowed to incubate for 24 hrs before samples were withdrawn and used to produce Giemsa stained blood films.

Molecules are shown by their SMILES.

Take `C[n+]1ccn(CCCCCCn2cc[n+](C)c2)c1` [QT87, 1,6-Bis-(3-methylimidazolium-1-yl)hexane diiodide]: the melting point was in the range of 156 to 157 °C. For the same molecule, the half-maximal inhibitory concentration (IC50) in the data set on P. falciparum was 2.6 ± 0.8 µM. Besides, the IC50 with CHO cells amounted to 146 ± 14 µM.
As to `CCC[n+]1ccn(CCCCCCCCCCCCn2cc[n+](CCC)c2)c1` [QT119, 1,12-Bis(3-propylimidazolium-1-yl)dodecane diiodide], the IC50 was determined as 0.0008 ± 0.0001 µM in the data set on P. falciparum and 78 ± 14 µM in the data set on CHO cells. The “parasitemia vs saline control” value with P. berghei parasites (9 ug/day infused once daily for three days, second experiment, day 14 (P<0.10), day 15 (P<0.03)) was “significantly lower”. In data set [1], the “adverse effects on the health of the mice” value (shortened to “adverse effects”) was “no adverse effects on the health of the mice were observed”.
Consider `C[n+]1ccn(-c2ccc(-c3ccc(-n4cc[n+](C)c4)cc3)cc2)c1` [QT98, 4,4′-Bis-(3-methyl-1H-imidazolium-1-yl)biphenyl diiodide], for which the results for the IC50 in the data set on P. falciparum and in the data set on CHO cells were 0.009 ± 0.001 µM and 9 ± 2 µM, respectively. In the data set on P. berghei parasites (0.24 ug/day infused once daily for three days, day 7 (P<0.05)), the “parasitemia vs saline control” value is on record as “significantly lower”.
Take `C[n+]1ccn(CCCCCCCCCCCCCCCCCCCCn2cc[n+](C)c2)c1` [QT116, 1,20-Bis-(3-methylimidazolium-1-yl)eicosane diiodide]: the melting point fell in the range of 78 to 80 °C. Moreover, the IC50 in the data set with P. falciparum amounted to 0.0021 ± 0.0005 µM. Also, in the data set with CHO cells, the IC50 worked out at 1.4 ± 0.2 µM.
Regarding `CCN(CC)CCCC(C)Nc1ccnc2cc(Cl)ccc12` (centres unmarked) [chloroquine, reference compound], the “parasitemia vs saline control” value with P. berghei parasites (450 ug/day infused once daily for three days, second experiment, all days following day 6 (P<0.02)) is reported as “significantly lower”.
On to `c1ccc(Cn2cc[n+](Cc3ccc4ccccc4c3)c2)cc1` [QT69, 1-Benzyl-3-(naphthalen-2-yl-methyl)imidazolium bromide], for which the results for the IC50 in the data set with P. falciparum and in the data set on CHO cells were 0.9 ± 0.2 µM and 108 ± 6 µM, respectively. Besides, the “parasitemia vs saline control” value with P. berghei parasites (18 ug/day infused once daily for three days, day 6 (P<0.10), day 7 (P<0.01), day 8 (P<0.01)) is recorded as “significantly lower”. The “parasite forms in Giemsa stained blood films” value in data set [2] is listed as “parasite forms were seen associated with the outside of the red cells”.
In the case of `c1cn(CCCCCCCCCCCCCCCCCCCCn2ccnc2)cn1` [QT-115, 1,20-Bis-(1H-imidazol-1-yl)eicosane], the melting point fell in the range of 58 to 59 °C.
As for `C[n+]1ccn(CCCCCCCCCCCCCn2cc[n+](C)c2)c1` [QT109, 1,13-Bis-(3-methylimidazolium-1-yl)tridecane diiodide], the IC50 in the data set on P. falciparum amounted to 0.007 ± 0.003 µM; in the data set on CHO cells, 51 ± 11 µM. Further, in data set [1], the “adverse effects” value is “no adverse effects on the health of the mice were observed”.
`Cl.Cl.c1cn(CCCCCCCCCCCCCCCn2ccnc2)cn1` showed a melting point of 98 to 99 °C.
`C[n+]1cnn(CCCCCCCCCCCCn2c[n+](C)cn2)c1` [QT124, 1,12-Bis(4-methyl-1H-1,2,4-triazolium-1-yl)dodecane diiodide]: the half-inhibitory concentration (IC50) in the data set with P. falciparum is 0.00016 ± 5e-05 µM; with CHO cells, 52 ± 9 µM. The “adverse effects” value in data set [1] is “no adverse effects on the health of the mice were observed”.

What is called IC50 is the point on the concentration scale where inhibition reaches its midpoint. By melting point is commonly meant the temperature, or range, at which the solid turns liquid.
